Test results from patent EP1322622B1, “NEW N, N'-DISUBSTITUTED BENZIMIDAZOLONE DERIVATIVES WITH AFFINITY AT THE SEROTONIN AND DOPAMINE RECEPTORS” (Sprout Pharmaceuticals, Inc., priority 2000, dated 2002).
Like-named read-outs stand apart in the source and are kept apart here.

Experiments:
[1] = biological target: T1, CHO/5-HT1A cells (Homo sapiens, UniProt P08908); experiment: 5-HT1A Functional assay (cAMP); format: cell-based; settings: 10 µM compound, % inhibition of the cAMP accumulation induced by 10 µM FSK; for inhibition at 10 µM: read-out: 5-HT1A cAMP % inhib.
T1 construct: expressed in transfected cells; host or cells: CHO/5-HT1A cells
T1 sequence (P08908 1-422): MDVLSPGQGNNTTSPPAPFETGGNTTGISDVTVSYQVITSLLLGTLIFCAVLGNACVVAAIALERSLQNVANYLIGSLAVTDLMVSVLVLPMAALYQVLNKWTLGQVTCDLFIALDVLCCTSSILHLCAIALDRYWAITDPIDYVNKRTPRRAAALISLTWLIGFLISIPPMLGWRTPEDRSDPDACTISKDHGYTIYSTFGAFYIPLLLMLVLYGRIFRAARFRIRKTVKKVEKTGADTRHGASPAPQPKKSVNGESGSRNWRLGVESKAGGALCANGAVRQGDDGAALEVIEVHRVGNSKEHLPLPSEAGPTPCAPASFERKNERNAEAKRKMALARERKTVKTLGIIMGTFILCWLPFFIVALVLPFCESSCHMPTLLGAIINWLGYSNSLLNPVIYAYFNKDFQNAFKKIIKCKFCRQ
Experimental: CHO/5-HT1A cells were random seeded at a density of about 200,000/well in 24 well plates the day prior to the experiment. On the day of the experiment, cells were pretreated for 15 min at 37 °C with 500 µM isobuthylmethylxantine (IBMX) dissolved in culture medium without serum. Wells were then divided in different groups in duplicate as follows: control, 10 µM FSK, 10 µM FSK + 1 µM 5-HT as positive standard and 10 µM FSK + 10 µM of the different compound under evaluation. Sample solutions were added and incubated for additional 15 min at 37 °C. After incubation, medium was aspirated and the reaction stopped by adding 200 µl of lysis buffer. Plates were shaken for 5 min, then the lysate was removed and samples were stored at 4 °C until the day of the assay. For the cAMP evaluation, samples were properly diluted and the cAMP content was measured by an enzymeimmunoassay system.

[2] = biological target: T2, 5-HT1A human receptors (Homo sapiens, UniProt P08908); experiment: 5-HT1A Radioligand Receptor Binding Assay ([3H]-8-OH-DPAT, CHO cell membranes); settings: for inhibition at 0.1 µM: compound at 10^-7 M, singlicate, [3H]-8-OH-DPAT 0.6-0.7 nM, read-out: 5-HT1A receptor binding assay % inhib. (10^-7 M)
T2 construct: expressed in transfected cells; host or cells: CHO cells
T2 sequence (P08908 1-422): T1 sequence (P08908 1-422)
Experimental: Membranes from CHO cells, expressing 5-HT1A human receptors were suspended in incubation buffer.
The compounds were tested in singlicate at one concentration (10^-7 M) in a total volume of 1000 µl. 980 µl of diluted membranes, 10 µl DMSO or unlabelled ligand and 10 µl of [^3H]-8-OH-DPAT (0.6-0.7 nM) were incubated for 60 min at 27 °C. The reaction was stopped by rapid filtration through Tomtec cell Harvester (48 wells) using Filtermat B (presoaked in 0.1% PEI) filters. […] Non specific binding was determined in the presence of 5-HT (10^-5 M).
(§1) The specific radioligand binding to the receptor was defined by the difference between total binding and non specific binding, determined in the presence of an excess of unlabelled ligand. Results were expressed as percentage of control specific binding obtained in the presence of the compounds.
The affinity values (IC50) for the compounds were obtained by a non linear least squares regression analysis on the basis of a one binding site model.

[3] = biological target: T3, D4 human receptors (Homo sapiens, UniProt P21917); experiment: D4 Radioligand Receptor Binding Assay ([3H] YM-09151-2, CHO cell membranes); settings: compound at 10^-7 M, singlicate; [3H] YM-09151-2 0.15-0.25 nM; read-out: D4 receptor binding assay % inhib. (10^-7 M)
T3 construct: expressed in transfected cells; host or cells: CHO cells
T3 sequence (P21917 1-419): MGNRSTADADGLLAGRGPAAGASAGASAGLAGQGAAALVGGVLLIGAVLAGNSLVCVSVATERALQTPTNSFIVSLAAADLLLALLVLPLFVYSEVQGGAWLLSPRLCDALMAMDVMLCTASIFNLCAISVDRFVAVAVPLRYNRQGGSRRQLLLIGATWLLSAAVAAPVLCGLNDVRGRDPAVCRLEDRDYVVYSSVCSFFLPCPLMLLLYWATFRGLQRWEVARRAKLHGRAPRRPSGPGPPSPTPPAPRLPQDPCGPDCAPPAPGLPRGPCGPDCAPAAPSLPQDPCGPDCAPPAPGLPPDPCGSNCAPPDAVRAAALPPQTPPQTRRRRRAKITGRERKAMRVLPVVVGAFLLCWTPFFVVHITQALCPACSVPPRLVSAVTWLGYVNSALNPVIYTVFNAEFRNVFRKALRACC
Experimental: Membranes from CHO cells, expressing D4 human receptors were suspended in incubation buffer.
Binding assays were performed in MultiProbe 204 pipetting system (Packard), according to a predetermined mapping, consistent with the software Screen. The compounds were tested in singlicate at one concentration (10^-7 M) in a total volume of 1000 µl (980 µl of diluted membranes, 10 µl DMSO or unlabelled ligand and 10 µl of [^3H] YM-09151-2 (0.15-0.25 nM). After incubation for 120 min at 27 °C, the reaction was stopped by rapid filtration through Tomtec cell Harvester (48 wells) using Filtermat B (presoaked in 0.1% PEI) filters. Filters were washed with ice-cold 50 mM Tris-HCl (pH 7.4) buffer (9 x 700 µl), dryed, covered with MeltiLex B/HS (Wallac) scintillator sheets and heated in oven at 80-90 °C for about 10 min, transferred into plastic sample bags (Wallac), sealed and put into 1024 Beta Plate scintillation counter (Wallac). Non specific binding was determined in the presence of clozapine dissolved in DMSO to a final concentration of 10^-5 M.
as §1

[4] = [3H]-8-OH-DPAT displacement, CHO membranes, read-out: 5-HT1A receptor binding IC50

SMILES	inhibition at 10 µM [1]	IC50 [2, 4]	inhibition at 0.1 µM [3]	inhibition at 0.1 µM [2]	5-HT1A cAMP % inhib. [1]	IC50 [2]
CC(=O)NCCn1c(=O)n(C/C=C\CN2CCN(c3cccc(C)c3C)CC2)c2ccccc21 [compound 468]	66%	3.1 nM				
Cc1cccc(N2CCN(CCCCn3c(=O)n(CCN4CCCCC4)c4ccccc43)CC2)c1C [compound 37]	44%	16 nM	54%	90%		
O=c1n(CCO)c2ccccc2n1CCCCN1CCN(c2cccc(Cl)c2)CC1 [compound 60]	65%	6.2 nM	82%	93%		
COCCn1c(=O)n(CC=CCN2CCN(c3cccc(C(F)(F)F)c3)CC2)c2ccccc21 [compound 301]					83%	
O=c1n(C/C=C\CN2CCN(c3ccccc3)CC2)c2ccccc2n1CCN1CCCCC1 [compound 310]	63%		49%	85%		
O=c1n(CCO)c2ccccc2n1CCN1CCN(c2cccc(C(F)(F)F)c2)CC1 [compound 187]	44%	8.2 nM	36%	94%		
O=c1n(CCO)c2ccccc2n1CCCCN1CCN(c2cccc(C(F)(F)F)c2)CC1 [compound 64]	52%		43%	92%		12 nM
O=c1n(C/C=C\CN2CCN(c3cccc(Cl)c3)CC2)c2ccccc2n1CCO [compound 365]	82%			89%		
CCNC(=O)OCCn1c(=O)n(CC=CCN2CCN(c3cccc(C(F)(F)F)c3)CC2)c2ccccc21 [compound 403]	84%					
O=c1n(C/C=C/CN2CCN(c3ccccn3)CC2)c2ccccc2n1CCN1CCCCC1 [compound 330]	62%		84%	97%		
CCNC(=O)OCCn1c(=O)n(CCN2CCN(c3cccc(Cl)c3)CC2)c2ccccc21 [compound 202]	72%	1.7 nM				
CCNC(=O)OCCn1c(=O)n(CC=CCN2CC=C(c3ccccc3)CC2)c2ccccc21 [compound 404]	60%		34%	95%		
COCCn1c(=O)n(CC=CCN2CCN(c3cccc(C(F)(F)F)c3)CC2)c2ccccc21 [compound 284]	82%					
CCNC(=O)OCCn1c(=O)n(C/C=C/CN2CCN(c3cccc(Cl)c3)CC2)c2ccccc21 [compound 416]	77%		39%	96%		
O=c1n(C/C=C/CN2CCc3c([nH]c4ccccc34)C2)c2ccccc2n1CCN1CCCCC1 [compound 333]	67%		80%	99%		
O=c1n(C/C=C\CN2CCN(c3cccc(C(F)(F)F)c3)CC2)c2ccccc2n1CCN1CCCCC1 [compound 318]	61%		36%	92%		
CS(=O)(=O)NCCn1c(=O)n(C/C=C\CN2CCN(c3cccc(C(F)(F)F)c3)CC2)c2ccccc21 [compound 503]	87%					
Cc1cccc(N2CCN(CCn3c(=O)n(CCN4CCCCC4)c4ccccc43)CC2)c1C [compound 158]	48%	13 nM	72%	95%		

SMILES	inhibition at 10 µM [1]	IC50 [2, 4]	inhibition at 0.1 µM [3]	inhibition at 0.1 µM [2]	5-HT1A cAMP % inhib. [1]	IC50 [2]
COCCn1c(=O)n(CCN2CCN(c3cccc(Cl)c3)CC2)c2ccccc21 [compound 164]	73%	4.2 nM	41%	96%		
O=c1n(C/C=C\CN2CC=C(c3ccccc3)CC2)c2ccccc2n1CCO [compound 370]	52%		60%	93%		
COCCn1c(=O)n(C/C=C/CN2CCN(c3cccc(Cl)c3)CC2)c2ccccc21 [compound 297]	74%					
Cc1cccc(N2CCN(C/C=C/Cn3c(=O)n(CCNS(C)(=O)=O)c4ccccc43)CC2)c1 [compound 536]	55%	9.5 nM				
CS(=O)(=O)NCCn1c(=O)n(CC=CCN2CCN(c3cccc(Cl)c3)CC2)c2ccccc21 [compound 499]	74%					
CC(=O)NCCn1c(=O)n(C/C=C\CN2CCN(c3cccc(C(F)(F)F)c3)CC2)c2ccccc21 [compound 459]	86%					
CCNC(=O)OCCn1c(=O)n(CCN2CCN(c3cccc(C)c3)CC2)c2ccccc21 [compound 217]	68%	5.2 nM				
COCCn1c(=O)n(CCCCN2CCN(c3cccc(Cl)c3)CC2)c2ccccc21 [compound 5]	63%	13 nM	54%	92%		
CCNC(=O)OCCn1c(=O)n(C/C=C/CN2CCN(c3ccccn3)CC2)c2ccccc21 [compound 415]	82%					
O=c1n(C/C=C/CN2CCN(c3cccc(C(F)(F)F)c3)CC2)c2ccccc2n1CCN1CCCCC1 [compound 335]	69%	3.5 nM	55%	95%		
O=c1n(C/C=C\CN2CCN(c3cccc(C(F)(F)F)c3)CC2)c2ccccc2n1CCO [compound 369]	84%		59%	96%		
Cc1cccc(N2CCN(C/C=C\Cn3c(=O)n(CCNS(C)(=O)=O)c4ccccc43)CC2)c1C [compound 512]	68%					
CCNC(=O)OCCn1c(=O)n(CC=CCN2CCN(c3cccc(C(F)(F)F)c3)CC2)c2ccccc21 [compound 420]					87%	
CC(=O)NCCn1c(=O)n(C/C=C\CN2CCN(c3ccccc3Cl)CC2)c2ccccc21 [compound 472]	67%					
O=c1n(C/C=C\CN2CCN(c3cccc(Cl)c3)CC2)c2ccccc2n1CCN1CCOCC1 [compound 263]	63%					
CCNC(=O)OCCn1c(=O)n(CC=CCN2CC=C(c3ccccc3)CC2)c2ccccc21 [compound 421]					56%	
Cc1cccc(N2CCN(CC=CCn3c(=O)n(CCNS(C)(=O)=O)c4ccccc43)CC2)c1 [compound 514]	67%					
COCCn1c(=O)n(C/C=C/CN2CCN(c3ccccn3)CC2)c2ccccc21 [compound 296]	82%					
